{"source": "patent US20090253778A1", "about": "“DNA composition against tumor stromal antigen FAP and methods of use thereof” (priority 2006, published 2009)", "key": {"[1]": {"tested_on": "CT26 colon carcinoma cells", "test": "nuclear apoptosis by Hoechst-33342 dye staining in chemoresistant CT26 clone", "assay_type": "cell-based, Murine", "settings": "resistant CT26 clone, 48 hours", "protocol": "(§1) Murine CT26 and D2F2 carcinoma cells were cultured in the presence of either 1% DMSO, etoposide, 5-fluorouracil, doxorubicin, vinblastine or paclitaxel (Sigma, St. Louis, Mo.) at the concentrations indicated. After 48 hours, apoptotic nuclei were counted after incubation with the DNA-specific Hoechst-33342 dye (2 μM; Molecular Probes, Eugene, Oreg.).\n(§2) Two clones of CT26 colon cancer and D2F2 breast cancer cells, respectively, have acquired chemoresistance (see FIG. 1, Panel C)."}, "[2]": {"tested_on": "parent CT26 cell line (ATCC #CLR-2326)", "test": "IC50 in original parent CT26 cell line", "assay_type": "cell-based, Murine", "settings": "Mus musculus", "source_text": "as §2"}, "[3]": {"tested_on": "D2F2 breast carcinoma cells", "test": "nuclear apoptosis by Hoechst-33342 dye staining in resistant D2F2 cells", "assay_type": "cell-based, Murine", "protocol": "as §1, §2"}, "[4]": {"tested_on": "D2F2 breast carcinoma cells", "test": "prophylactic setting, orthotopic D2F2 tumor growth, with or without doxorubicin", "assay_type": "in vivo, BALB/c mice", "protocol": "Oral immunization, tumor cell challenge and treatment with doxorubicin. […] Med., 2002, 8: 1369-1375. Animals were challenged about 10 days later by subcutaneous (s.c.) injection of about 3×10^4 CT26 colon carcinoma cells in the left front flank or by orthotopic (o.t.) injection of about 3×10^5 D2F2 breast cancer cells in the left, second lowest mammary fat pad.\nTumor volume (in mm^3) was calculated by measuring the tumor in 2 dimensions (i.e., length and width, in millimeters) and calculating the volume as one half the length times the square of the width. In the therapeutic setting, the initial tumor cell inoculation was by intravenous (i.v.) injection of about 1×10^5 CT26 colon carcinoma cells followed about 3 and 10 days later by oral vaccinations with control vaccine or active DNA compositions. After about 18 days, the lungs were weighed (normal lung weight was about 0.2 g) and pulmonary tumor metastases were examined and scored by visual evaluation assessing the percentage of lung surface covered by fused metastases as follows: score of 0 for 0% coverage, score of 1 for less than about 20% coverage, score of 2 for about 20-50% coverage, score of 3 for greater than about 50% of lung surface covered. Treatment with doxorubicin was performed in groups of mice with about 10 mg/kg doxorubicin (Sigma) administered i.v., 5, 10 and 15 days after tumor challenge. […]"}}}
{"smiles": "CC[C@]1(O)C[C@@H]2CN(CCc3c([nH]c4ccccc34)[C@@](C(=O)OC)(c3cc4c(cc3OC)N(C)[C@H]3[C@@](O)(C(=O)OC)[C@H](OC(C)=O)[C@]5(CC)C=CCN6CC[C@]43[C@@H]65)C2)C1", "note": "[vinblastine]", "values": [{"measurement": "nuclear apoptosis (Hoechst-33342 dye staining)", "setting": "[1]; only at 5 μM", "value": "slight apoptotic effect"}]}
{"smiles": "O=c1[nH]cc(F)c(=O)[nH]1", "note": "[5-FU, 5-fluorouracil]", "values": [{"measurement": "nuclear apoptosis (Hoechst-33342 dye staining)", "setting": "[1]; concentration as high as 100 μM", "value": "not able to induce nuclear apoptosis"}, {"measurement": "IC50", "setting": "[2]", "value": "~1850", "unit": "nM"}]}
{"smiles": "COc1cccc2c1C(=O)c1c(O)c3c(c(O)c1C2=O)C[C@@](O)(C(=O)CO)C[C@@H]3O[C@H]1C[C@H](N)[C@H](O)[C@H](C)O1", "note": "[doxorubicin]", "values": [{"measurement": "sensitivity of D2F2 cells", "setting": "[3]; FIG. 1, Panel C", "value": "partially sensitive"}, {"measurement": "nuclear apoptosis (Hoechst-33342 dye staining)", "setting": "[3]; resistant D2F2 cells, 48 hours, highest concentration of 1 μM", "value": "able to induce nuclear apoptosis"}, {"measurement": "tumor growth", "setting": "[4]; orthotopic D2F2, doxorubicin or PBS 5, 10 and 15 days after challenge", "value": "only able to suppress, but not eradicate tumor growth"}, {"measurement": "complete rejection of tumors", "setting": "[4]; single agent alone", "value": "not observed"}]}
